# Experimental data reported in patent US7588756B1, “Treatment of cardiac power failure” (priority 1999, dated 2009).
# Legend:
# [1] = clinical studies; cited from earlier work
# [2] = test system: saponin-semipermeabilized skeletal muscle fibres of the rat; assay: Isometric force of saponin-semipermeabilized (skinned) skeletal muscle fibres, indirect measure of Ca2+ release from the SR; settings: for Ca2+ sensitivity of the contractile apparatus / increase of maximum force development compared with the control: slow skeletal musculature (M. soleus); for Ca2+ sensitivity of the contractile apparatus: 5-10 μM; for increase of maximum force development compared with the control: equimolar concentration 5-10 μM
# Experimental: The aim of this test procedure was therefore to examine what functional significance these sequences—in the form of synthetic peptides—have compared with the whole protein for the regulation of the Ca^2+ release from the SR. The Ca^2+ release was measured indirectly on saponin-semipermeabilized skeletal muscle fibres of the rat over an isometric force gradient. The measurement of the isometric force before and after addition of S100A1 peptide/protein served as a control.
# protein kinase C = settings: cited from earlier work
# [3] = test system: microtubuli and intermediate filaments; settings: biochemical reconstitutive assays; cited from earlier work
# [4] = test system: neonatal rat cardiomyocytes; assay: Intracellular Ca2+ transients in cultivated neonatal rat cardiomyocytes after co-cultivation with recombinant S100A1; type: cell-based; settings: S100A1 1 μM to 10 μM at two-day intervals, 7 days
# Experimental: Neonatal rat hearts were removed from 3-day-old rats, ventricles separated from the atria and stored coarse-ground on ice in ADS buffer (6.8 g NaCl, 4.76 g HEPES, 0.12 g NaH2PO4, 1 g glucose, 0.4 g KCl, 0.1 g MgSO4 and 1000 ml H2O). In a bioreactor (Wheaton® container), the cells were then separated from the tissue assembly by means of collagenase digestion (108 U/mg/ml collagenase, Worthington, USA), and the released cells separated over a density gradient (Percoll, Pharmacia®) by centrifugation. The cardiomyocyte fraction was resuspended in cell culture medium (DMEM+10% newborn calf serum) and plated in a density of approx. 100,000 cardiomyocytes per well on 24-well cell culture plates. After 24 hours culture at 37° C. and 5% CO2, recombinant S100A1 was added to the cell culture medium at two-day intervals in concentrations of 1 μM to 10 μM. […] The intracellular Ca^2+ transients were then detected and quantified by means of inverse fluorescence microscopy (Olympus OSP 3®) under both rest conditions and electrical field stimulation (PHYWE®-bioelectrical measurement unit; frequencies of 30-300 bpm). […] The changes in the Ca^2+ concentration per time unit were measured as a quotient from the time until the signal maximum and the signal amplitude (+dc/dt) were reached or as a quotient of the time until the half amplitude and the signal amplitude (−dc/dt) were reached. […]
molecule,measurement,setting,value
COc1ccc(-c2nc3ccc(C4=NNC(=O)CC4C)cc3[nH]2)cc1 (stereo not shown) [pimobendan],improvement of the heart function compared with placebo,[1],no significant improvement of the heart function
"combination of the three peptides: Combination of the N-terminal, hinge region and C-terminal synthetic S100A1 peptides (peptide 1 GSELETAMETLINVF; peptide 2 LSGFLDAQKDVDA; peptide 3 YVVLVAALTVA)",Ca2+ sensitivity of the contractile apparatus,[2],unchanged
same,increase of maximum force development compared with the control,[2],49%±6%
combination of “C-terminal” peptide and the “hinge region”: Combination of the C-terminal and hinge region synthetic S100A1 peptides (peptide 1 LSGFLDAQKDVDA; peptide 2 YVVLVAALTVA),increase of isometric force development,[2]; before versus after addition of peptide,15%±4%
recombinant S100A1: Human recombinant Ca2+-binding protein S100A1 (SEQ ID NO: 2) prepared in genetically modified E. coli,Ca2+ sensitivity of the contractile apparatus,[2],unchanged
same,increase of maximum force development compared with the control,[2],52%±7%
same,effect on protein kinase C,protein kinase C,inhibition
same,polymerization of microtubuli and of intermediate filaments,[3],inhibition
same,"rise in the Ca2+ concentration per time unit in the systole (+dc/dt), increase in comparison with the control cell population",[4]; p<0.0002,3 times
same,"drop in the Ca2+ concentration per time unit in the diastole (-dc/dt), acceleration in comparison with the control cell population",[4]; p<0.0003,2.2 times
